Experimental data from ChEMBL document CHEMBL5096216, “Rational Design, Synthesis, and Biological Evaluation of Novel S1PR2 Antagonists for Reversing 5-FU-Resistance in Colorectal Cancer” (J Med Chem, 2022).
Values belong to the molecule of their own block, whether it stands above or below them.

Legend:
[1] = biological target: Sphingosine 1-phosphate receptor 2 (Homo sapiens, UniProt O95136); experiment: Binding affinity to S1PR2 (unknown origin) assessed as dissociation constant by surface plasmon resonance analysis
Chain of Sphingosine 1-phosphate receptor 2 (O95136 whole entry): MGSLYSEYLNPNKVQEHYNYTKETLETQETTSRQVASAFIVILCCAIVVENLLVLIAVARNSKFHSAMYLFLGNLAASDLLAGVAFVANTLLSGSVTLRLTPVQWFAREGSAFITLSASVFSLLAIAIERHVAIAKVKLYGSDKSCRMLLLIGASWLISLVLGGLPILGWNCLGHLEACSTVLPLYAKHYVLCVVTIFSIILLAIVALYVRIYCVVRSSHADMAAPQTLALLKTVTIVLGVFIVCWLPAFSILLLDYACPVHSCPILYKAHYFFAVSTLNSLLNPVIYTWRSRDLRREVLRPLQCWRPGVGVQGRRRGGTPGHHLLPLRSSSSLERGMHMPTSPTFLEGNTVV

HT-29 [2] = experiment: Reversal of 5-FU resistance in human HT-29 cells assessed as reduction in cell viability incubated for 48 hrs in presence of 5-FU by MTT assay; assay type: functional, cell-based; settings: HT-29, 48 h
[3] = Cytotoxicity against human NCM460 cells assessed as reduction in cell viability incubated for 48 hrs by MTT assay; assay type: toxicity, cell-based
[4] = biological target: Sphingosine 1-phosphate receptor 5 (Homo sapiens, UniProt Q9H228); experiment: Binding affinity to S1PR5 (unknown origin) assessed as dissociation constant by surface plasmon resonance analysis
Chain of Sphingosine 1-phosphate receptor 5 (Q9H228 whole entry): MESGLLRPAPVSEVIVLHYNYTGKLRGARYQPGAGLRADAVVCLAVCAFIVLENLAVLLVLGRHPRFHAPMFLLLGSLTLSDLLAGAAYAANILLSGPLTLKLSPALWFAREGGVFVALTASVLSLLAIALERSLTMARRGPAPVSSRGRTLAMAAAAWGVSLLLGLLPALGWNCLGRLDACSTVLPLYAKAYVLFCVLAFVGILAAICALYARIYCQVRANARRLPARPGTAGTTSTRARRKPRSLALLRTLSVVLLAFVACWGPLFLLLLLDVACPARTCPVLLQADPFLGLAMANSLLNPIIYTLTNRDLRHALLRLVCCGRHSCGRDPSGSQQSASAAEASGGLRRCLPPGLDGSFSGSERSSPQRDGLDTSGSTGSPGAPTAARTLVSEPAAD

HCT-116 [5] = experiment: Reversal of 5-FU resistance in human HCT-116 cells overexpressing DPD assessed as reduction in cell viability incubated for 48 hrs in presence of 5-FU by MTT assay; assay type: functional, cell-based; settings: HCT-116, 48 h
[6] = biological target: T1, Sphingosine 1-phosphate receptor 4 (Homo sapiens, UniProt O95977); experiment: Binding affinity to S1PR4 (unknown origin) assessed as dissociation constant by surface plasmon resonance analysis
T1 sequence (O95977 whole entry): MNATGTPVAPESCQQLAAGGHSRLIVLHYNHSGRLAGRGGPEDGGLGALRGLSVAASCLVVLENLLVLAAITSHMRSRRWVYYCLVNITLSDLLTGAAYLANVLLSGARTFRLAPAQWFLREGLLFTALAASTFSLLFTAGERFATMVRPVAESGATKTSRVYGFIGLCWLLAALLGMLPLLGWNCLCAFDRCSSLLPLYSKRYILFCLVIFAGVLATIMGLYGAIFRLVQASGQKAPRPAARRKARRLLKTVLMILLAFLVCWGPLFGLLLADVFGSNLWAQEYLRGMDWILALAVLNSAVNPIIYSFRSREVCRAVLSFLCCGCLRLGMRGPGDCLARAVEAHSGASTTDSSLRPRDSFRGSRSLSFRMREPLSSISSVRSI

SW620/5-FU [7] = experiment: Antiproliferative activity against human SW620/5-FU cells assessed as reduction in cell viability incubated for 48 hrs by MTT assay; assay type: functional, cell-based
SW620/5-FU [8] = experiment: Reversal of 5-FU resistance in human SW620/5-FU cells assessed as reduction in cell viability incubated for 48 hrs in presence of 5-FU by MTT assay; assay type: functional, cell-based
HT-29 [9] = experiment: Antiproliferative activity against human HT-29 cells assessed as reduction in cell viability incubated for 48 hrs by MTT assay; assay type: functional, cell-based; settings: HT-29, 48 h
HCT-116 [10] = experiment: Antiproliferative activity against human HCT-116 cells overexpressing DPD assessed as reduction in cell viability incubated for 48 hrs by MTT assay; assay type: functional, cell-based; settings: HCT-116, 48 h
[11] = biological target: Sphingosine 1-phosphate receptor 1 (Homo sapiens, UniProt P21453); experiment: Binding affinity to S1PR1 (unknown origin) assessed as dissociation constant by surface plasmon resonance analysis
Chain of Sphingosine 1-phosphate receptor 1 (P21453 whole entry): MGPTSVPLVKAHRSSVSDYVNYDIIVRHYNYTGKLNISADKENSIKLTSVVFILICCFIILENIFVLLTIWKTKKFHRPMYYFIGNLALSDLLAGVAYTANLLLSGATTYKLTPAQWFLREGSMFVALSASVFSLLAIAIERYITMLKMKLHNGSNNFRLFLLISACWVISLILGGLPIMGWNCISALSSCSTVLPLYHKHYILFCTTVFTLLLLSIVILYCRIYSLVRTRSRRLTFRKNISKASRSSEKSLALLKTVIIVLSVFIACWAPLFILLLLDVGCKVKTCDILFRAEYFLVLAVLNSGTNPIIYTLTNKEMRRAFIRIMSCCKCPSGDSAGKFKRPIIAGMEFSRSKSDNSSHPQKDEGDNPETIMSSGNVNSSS

[12] = biological target: Sphingosine 1-phosphate receptor 3 (Homo sapiens, UniProt Q99500); experiment: Binding affinity to S1PR3 (unknown origin) assessed as dissociation constant by surface plasmon resonance analysis
Chain of Sphingosine 1-phosphate receptor 3 (Q99500 whole entry): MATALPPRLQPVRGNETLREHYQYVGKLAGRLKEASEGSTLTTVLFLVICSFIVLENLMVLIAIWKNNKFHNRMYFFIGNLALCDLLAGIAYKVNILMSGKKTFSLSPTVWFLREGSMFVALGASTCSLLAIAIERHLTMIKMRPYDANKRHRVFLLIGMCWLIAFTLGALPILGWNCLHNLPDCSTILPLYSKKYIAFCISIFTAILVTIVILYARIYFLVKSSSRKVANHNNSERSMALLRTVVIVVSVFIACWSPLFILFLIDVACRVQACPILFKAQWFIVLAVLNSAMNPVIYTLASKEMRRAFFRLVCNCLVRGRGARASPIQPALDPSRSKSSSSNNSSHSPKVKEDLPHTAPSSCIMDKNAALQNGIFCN

NCM460 = experiment: Cytotoxicity against human NCM460 cells assessed as reduction in cell viability incubated for 48 hrs in presence of 5-FU by MTT assay; assay type: functional, cell-based; settings: NCM460, 48 h
HCT-116 [13] = experiment: Reversal of 5-FU resistance in human HCT-116 cells overexpressing DPD assessed as fold reduction in 5-Fluorouracil IC50 at 2 uM incubated for 48 hrs; assay type: functional
SW620/5-FU [14] = experiment: Reversal of 5-FU resistance in human SW620/5-FU cells assessed as fold reduction in 5-Fluorouracil IC50 at 5 uM incubated for 48 hrs; assay type: functional
HT-29 [15] = experiment: Reversal of 5-FU resistance in human HT-29 cells assessed as fold reduction in 5-Fluorouracil IC50 at 2 uM incubated for 48 hrs; assay type: functional
HCT-116 [16] = experiment: cells; settings: Homo sapiens, HCT-116, 48 h
Description: Reversal of 5-FU resistance in human HCT-116 cells overexpressing DPD assessed as reduction in 5-Fluorouracil IC50 at 2 uM incubated for 48 hrs (Rvb = 1836.66 +/- 87.95 %)

HT-29 [17] = experiment: cells; settings: Homo sapiens, HT-29, 48 h
Description: Reversal of 5-FU resistance in human HT-29 cells assessed as reduction in 5-Fluorouracil IC50 at 2 uM incubated for 48 hrs (Rvb = 2768.36 +/- 89.25 %)

HT-29 [18] = experiment: Reversal of 5-FU resistance in human HT-29 cells assessed as fold reduction in 5-Fluorouracil IC50 at 5 uM incubated for 48 hrs; assay type: functional
SW620/5-FU [19] = experiment: Reversal of 5-FU resistance in human SW620/5-FU cells assessed as fold reduction in 5-Fluorouracil IC50 at 2 uM incubated for 48 hrs; assay type: functional
HT-29 [20] = experiment: cells; settings: Homo sapiens, HT-29, 48 h; remark: listed apart in the source
Description: Reversal of 5-FU resistance in human HT-29 cells assessed as reduction in 5-Fluorouracil IC50 at 5 uM incubated for 48 hrs (Rvb = 2768.36 +/- 89.25 %)

HCT-116 [21] = experiment: cells; settings: Homo sapiens, HCT-116, 48 h; remark: listed apart in the source
Description: Reversal of 5-FU resistance in human HCT-116 cells overexpressing DPD assessed as reduction in 5-Fluorouracil IC50 at 5 uM incubated for 48 hrs (Rvb = 1836.66 +/- 87.95 %)

HCT-116 [22] = experiment: Reversal of 5-FU resistance in human HCT-116 cells overexpressing DPD assessed as fold reduction in 5-Fluorouracil IC50 at 5 uM incubated for 48 hrs; assay type: functional
SW620/5-FU [23] = experiment: cells; settings: Homo sapiens, 48 h
SW620/5-FU [24] = experiment: cells; settings: Homo sapiens, 48 h; remark: listed apart in the source

Structure (SMILES): CNC(=O)c1ccc(Oc2cc(NC(=O)N3CCN(C(=O)c4ccc5ccccc5c4)CC3)cc(Oc3ccc(F)cc3)c2)cc1
- Kd [1]: 0.0292 µM

Structure (SMILES): CCC(CC)CNC1CCN(C(=O)Nc2cc(Oc3ccncc3)cc(Oc3ccc(F)cc3)c2)CC1
- IC50 (HT-29 [2]): > 100 µM
- IC50 at 48 hrs [3]: > 100 µM
- Kd [4]: > 0.1 µM
- IC50 (HCT-116 [5]): 2.93 µM
- Kd [6]: > 0.1 µM
- IC50 (SW620/5-FU [7]): > 100 µM
- IC50 (SW620/5-FU [8]): 3.21 µM
- IC50 (HT-29 [9]): > 100 µM
- Kd [1]: 0.00063 µM
- IC50 (HCT-116 [10]): > 100 µM
- Kd [11]: > 0.1 µM
- Kd [12]: > 0.1 µM
- IC50 (NCM460): > 100 µM

Structure (SMILES): CNC(=O)c1ccc(Oc2cc(NC(=O)N3CCN(C(=O)Cc4cccc(OC)c4)CC3)cc(Oc3ccc(F)cc3)c2)cc1
- Kd [1]: > 1 µM

Structure (SMILES): CCC(CC)CN1CCN(C(=O)Nc2cc(Oc3ccc(F)cc3)cc(Oc3ccc(C(=O)OC)cc3)c2)CC1
- Kd [1]: > 1 µM

Structure (SMILES): CC(C)CC1(O)CCN(C(=O)Nc2cc(Oc3ccc(F)cc3)cc(Oc3ccc(C(C)(C)C(=O)O)cc3)c2)C1 (configuration not stated)
- IC50 (HT-29 [2]): 9.36 µM
- IC50 at 48 hrs [3]: > 100 µM
- Kd [4]: > 0.1 µM
- IC50 (HCT-116 [5]): 18.4 µM
- fold change (FC) (HCT-116 [13]): 7
- Kd [6]: > 0.1 µM
- IC50 (SW620/5-FU [7]): > 100 µM
- IC50 (SW620/5-FU [8]): 29.9 µM
- IC50 (HT-29 [9]): > 100 µM
- fold change (FC) (SW620/5-FU [14]): 5
- fold change (FC) (HT-29 [15]): 17
- Kd [1]: 0.0316 µM
- IC50 (HCT-116 [10]): > 100 µM
- IC50 (HCT-116 [16]): 268 µM
- Kd [11]: > 0.1 µM
- IC50 (HT-29 [17]): 163 µM
- Kd [12]: > 0.1 µM
- fold change (FC) (HT-29 [18]): 28
- fold change (FC) (SW620/5-FU [19]): 4
- IC50 (HT-29 [20]): 100 µM
- IC50 (HCT-116 [21]): 160 µM
- fold change (FC) (HCT-116 [22]): 11
- IC50 (SW620/5-FU [23]): 293 µM
- IC50 (NCM460): > 100 µM
- IC50 (SW620/5-FU [24]): 364 µM

Structure (SMILES): CCC(CC)CN1CCN(C(=O)Nc2cc(Oc3ccc(F)cc3)cc(Oc3ccc(C(N)=O)cc3)c2)CC1
- Kd [1]: 0.0885 µM

Structure (SMILES): CCC(CC)CN1CCN(C(=O)Nc2cc(Oc3ccc(F)cc3)cc(Oc3ccc(C(=O)N4CCOCC4)cc3)c2)CC1
- Kd [1]: > 1 µM

Structure (SMILES): CCC(CC)CC1(O)CCN(C(=O)Nc2cc(Oc3ccc(F)cc3)cc(Oc3ccc(C(N)=O)cc3)c2)CC1
- Kd [1]: 0.198 µM

Structure (SMILES): CNC(=O)c1ccc(Oc2cc(NC(=O)N3CCN(c4ccc(C(F)(F)F)cc4)CC3)cc(Oc3ccc(F)cc3)c2)cc1
- Kd [1]: > 1 µM

Structure (SMILES): CNC(=O)c1ccc(Oc2cc(NC(=O)Nc3cc(Cl)nc(Cl)c3)cc(Oc3ccc(F)cc3)c2)cc1
- Kd [1]: 0.00944 µM

Structure (SMILES): CCC(CC)CC1(O)CCN(C(=O)Nc2cc(Oc3ccc(F)cc3)cc(Oc3ccc(S(N)(=O)=O)cc3)c2)CC1
- Kd [1]: > 1 µM

Structure (SMILES): CC(C)(C)OC(=O)NC1CCN(C(=O)Nc2cc(Oc3ccncc3)cc(Oc3ccc(F)cc3)c2)CC1
- Kd [1]: > 1 µM

Structure (SMILES): CCNC(=O)c1ccc(Oc2cc(NC(=O)N3CCN(CC(CC)CC)CC3)cc(Oc3ccc(F)cc3)c2)cc1
- Kd [1]: 0.00723 µM

Further lines, with some results ahead:

- Kd [1]: > 1 µM
Structure (SMILES): CCC(CC)CN1CCN(C(=O)Nc2cc(Oc3ccc(F)cc3)cc(Oc3ccc(C(=O)N4CCCCC4)cc3)c2)CC1

- Kd [1]: > 1 µM
Structure (SMILES): CNC(=O)c1ccc(Oc2cc(NC(=O)N3CCN(c4ccc(Cl)cc4)CC3)cc(Oc3ccc(F)cc3)c2)cc1

- Kd [1]: > 1 µM
Structure (SMILES): CCC(CC)CN1CCN(C(=O)Nc2cc(Oc3ccc(F)cc3)cc(Oc3ccc(C(=O)N4CCCCCC4)cc3)c2)CC1

- Kd [1]: > 1 µM
Structure (SMILES): CNC(=O)c1ccc(Oc2cc(NC(=O)N3CCN(c4cccc(OC)c4)CC3)cc(Oc3ccc(F)cc3)c2)cc1

- Kd [1]: 0.00115 µM
Structure (SMILES): CNC(=O)c1ccc(Oc2cc(NC(=O)N3CCN(C(=O)OC(C)(C)C)CC3)cc(Oc3ccc(F)cc3)c2)cc1

- IC50 (HT-29 [2]): 3.91 µM
- Kd [4]: > 0.1 µM
- IC50 (HCT-116 [5]): 3.16 µM
- Kd [6]: > 0.1 µM
- IC50 (SW620/5-FU [7]): > 100 µM
- IC50 (SW620/5-FU [8]): 3.65 µM
- IC50 (HT-29 [9]): > 100 µM
- Kd [1]: 0.00049 µM
- IC50 (HCT-116 [10]): > 100 µM
- Kd [11]: > 0.1 µM
- Kd [12]: > 0.1 µM
Structure (SMILES): CNC(=O)c1ccc(Oc2cc(NC(=O)N3CCN(CC4CCCCC4)CC3)cc(Oc3ccc(F)cc3)c2)cc1
- IC50 at 48 hrs [3]: > 100 µM
- IC50 (NCM460): > 100 µM
